Key:
Assay type in all cases: cell-based
BCL-XL = target: T1, BCL-XL (Homo sapiens, UniProt Q07817); assay: Bcl-xL ELISA degradation in MOLT-4 cells, 6 h; details: for DC50: read-out: Bcl-xL ELISA in MOLT-4 degradation 6 h: Mean external-Abs DC50
T1 construct: endogenous in cells; host or cells: MOLT-4
Protocol: The letter codes for BCL-XL DC50 include: A (<0.01 μM); B (0.01-0.1 μM); C (>[…]); D (>0.5-1.0 μM); and E (>1.0 μM). The letter codes for Dmax % include A (>75%); B (50 to 75%); C (<50%).

MOLT-4 cells = assay: CTG (CellTiter-Glo) cell viability assay, MOLT-4; details: Homo sapiens, MOLT-4, 72 h, 3 day incubation, read-out: CTG Cell Viability Assay - MOLT-4 3 day: Average external-IC50
How it was run: (§1)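 MOLT-4 and Caki-2 cells at 10,000 cells/well exposed 3 days at 37° C., 5% CO2 to 9 doses (1:3, top 10 μM, 0.2% DMSO). Viability by CellTiter-Glo luminescence; IC50 from three-parameter logistic fit.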

Caki-2 cells = assay: CTG (CellTiter-Glo) cell viability assay, Caki-2; details: Homo sapiens, 72 h, 3 day incubation, read-out: CTG Chempartner - Caki-2 3 day: Average external-IC50
How it was run: as §1

T1 sequence (Q07817 whole entry): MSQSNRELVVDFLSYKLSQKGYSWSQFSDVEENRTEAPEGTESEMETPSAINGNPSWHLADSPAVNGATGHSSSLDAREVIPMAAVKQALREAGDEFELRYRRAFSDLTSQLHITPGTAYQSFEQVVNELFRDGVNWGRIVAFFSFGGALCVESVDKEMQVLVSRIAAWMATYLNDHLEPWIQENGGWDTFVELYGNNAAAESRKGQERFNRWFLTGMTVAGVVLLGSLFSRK

| Compound | Dmax (BCL-XL) [%] | DC50 (BCL-XL) [µM] | IC50 (MOLT-4 cells) [µM] | IC50 (Caki-2 cells) [µM] |
| --- | --- | --- | --- | --- |
| Cc1c(-c2ccc(N3CCc4cccc(C(=O)Nc5nc6ccccc6s5)c4C3)nc2C(=O)NS(=O)(=O)CCCCCc2cccc3c2n(C)c(=O)n3C2CCC(=O)NC2=O)cnn1CC1CCCCC1 (stereo not shown) [I-426] | > 75 | < 0.01 | < 0.1 | 1 to 10 |
| C#Cc1ccc([C@H](C)NC(=O)[C@@H]2C[C@@H](O)CN2C(=O)[C@@H](NC(=O)CCCCCS(=O)(=O)NC(=O)c2nc(N3CCc4cccc(C(=O)Nc5nc6cccnc6s5)c4C3)ccc2-c2cnn(CC3CCCCC3)c2C)C(C)(C)C)cc1 [I-364] | > 75 | < 0.01 | < 0.1 | > 10 |
| Cc1ncsc1-c1ccc([C@H](C)NC(=O)[C@@H]2C[C@@H](O)CN2C(=O)[C@@H](NC(=O)C2CCN(CCCS(=O)(=O)NC(=O)c3nc(N4CCc5cccc(C(=O)Nc6nc7ccccc7s6)c5C4)ccc3-c3cnn(CC4CCCCC4)c3C)CC2)C(C)(C)C)cc1 [I-381] | > 75 | 0.01 to 0.1 | 0.1 to 1 | > 10 |
| Cc1ncsc1-c1ccc([C@H](C)NC(=O)[C@@H]2C[C@@H](O)CN2C(=O)[C@@H](NC(=O)CCCS(=O)(=O)NC(=O)c2nc(N3CCc4cccc(C(=O)Nc5nc6cccnc6s5)c4C3)ccc2-c2cnn(CC3CCCCC3)c2C)C(C)(C)C)cc1 [I-331] | 50 to 75 | 0.1 to 0.5 | 0.1 to 1 | > 10 |
| C#Cc1ccc([C@H](COC)NC(=O)[C@@H]2C[C@@H](O)CN2C(=O)[C@@H](NC(=O)CCCCCS(=O)(=O)NC(=O)c2nc(N3CCc4cccc(C(=O)Nc5nc6cccnc6s5)c4C3)ccc2-c2cnn(CC3CCCCC3)c2C)C(C)(C)C)cc1 [I-478] | > 75 | < 0.01 | < 0.1 | > 10 |
| Cc1ncsc1-c1ccc(CNC(=O)[C@@H]2C[C@@H](O)CN2C(=O)[C@@H](NC(=O)C2CN(CCS(=O)(=O)NC(=O)c3nc(N4CCc5cccc(C(=O)Nc6nc7ccccc7s6)c5C4)ccc3-c3cnn(CC4CCCCC4)c3C)C2)C(C)(C)C)cc1 [I-422] | > 75 | 0.1 to 0.5 | 0.1 to 1 | > 10 |
| C#Cc1ccc(CNC(=O)[C@@H]2C[C@@H](O)CN2C(=O)[C@@H](NC(=O)CCCCCS(=O)(=O)NC(=O)c2nc(N3CCc4cccc(C(=O)Nc5nc6ccccc6s5)c4C3)ccc2-c2cnn(CC3CCCCC3)c2C)C(C)(C)CCOP(=O)(O)O)cc1 [I-417] | 50 to 75 | > 1 | > 3 | > 10 |
| Cc1ncsc1-c1ccc(CNC(=O)[C@@H]2C[C@@H](O)CN2C(=O)[C@@H](NC(=O)[C@H]2CCN(c3ccc(S(=O)(=O)NC(=O)c4nc(N5CCc6cccc(C(=O)Nc7nc8ccccc8s7)c6C5)ccc4-c4cnn(CC5CCCCC5)c4C)cc3)C2)C(C)(C)C)cc1 [I-359] | > 75 | < 0.01 | < 0.1 | > 10 |
| Cc1ncsc1-c1ccc([C@H](C)NC(=O)[C@@H]2C[C@@H](O)CN2C(=O)[C@@H](NC(=O)C2CCN(c3ccc(S(=O)(=O)NC(=O)c4nc(N5CCc6cccc(C(=O)Nc7nc8ccccc8s7)c6C5)ccc4-c4cnn(CC5CCCC5)c4C)cc3)CC2)C(C)(C)C)cc1 [I-348] | > 75 | < 0.01 | < 0.1 | > 10 |
| Cc1ncsc1-c1ccc([C@H](C)NC(=O)[C@@H]2C[C@@H](O)CN2C(=O)[C@@H](NC(=O)C2CCN(c3ccc(S(=O)(=O)NC(=O)c4nc(N5CCc6cccc(C(=O)Nc7nc8ccccc8s7)c6C5)ccc4-c4cnn(CC5CCCCC5)c4C)cc3COP(=O)(O)O)CC2)C(C)(C)C)cc1 [I-334] | > 75 | 0.1 to 0.5 | 1 to 3 | 1 to 10 |
| C#Cc1ccc([C@H](C)NC(=O)[C@@H]2C[C@@H](O)CN2C(=O)[C@@H](NC(=O)CCCCCS(=O)(=O)NC(=O)c2nc(N(C)c3cc(C)c(Nc4nc5cccnc5s4)nn3)ccc2-c2cnn(CC34CC5CC(CC(C5)C3)C4)c2C)C(C)(C)C)cc1 [I-447] | > 75 | 0.01 to 0.1 | 0.1 to 1 | > 10 |
| Cc1ncsc1-c1ccc([C@H](C)NC(=O)[C@@H]2C[C@@H](O)CN2C(=O)[C@H](c2cc(OC3CC4(C3)CN(C(=O)c3nc(N5CCc6cccc(C(=O)Nc7nc8ccccc8s7)c6C5)ccc3-c3cnn(CC5CCCCC5)c3C)C4)no2)C(C)C)cc1 [I-293] | < 50 | 0.5 to 1 | 1 to 3 | 1 to 10 |
| C#Cc1ccc([C@H](CO)NC(=O)[C@@H]2C[C@@H](O)CN2C(=O)[C@@H](NC(=O)CCCCCS(=O)(=O)NC(=O)c2nc(N(C)c3cc(C)c(Nc4nc5ccccc5s4)nn3)ccc2-c2cnn(CC34CC5CC(CC(C5)C3)C4)c2C)C(C)(C)C)cc1 [I-474] | > 75 | < 0.01 | < 0.1 | > 10 |
